Measurements as given in patent US9956202B2, “Use of indolyl and indolinyl hydroxamates for treating neurodegenerative disorders or cognitive decicits” (Taipei Medical University, priority 2013, dated 2018).

Legend:
[1] = system: Sprague-Dawley rats with spinal cord injury; experiment: BBB Locomotor Rating Scale after spinal cord injury; type: in vivo; settings: intravenous 30 mg/Kg per day for 7 days, 7 days after spinal cord injury, vs vehicle, p=0.0147
Description: (§1) In this example, effects of compounds of this invention were verified using spinal cord injury animal model.
Male Sprague-Dawley rats (Academia Sinica, Taiwan), weighing 280-330 g, were kept two per cage for at least five days after their arrival. The rats had access to food and water at libitum and were housed within a room with a 12:12 h dark-light cycle. This study was performed in accordance with the guidelines provided by the Experimental Animal Laboratory and approved by the Animal Care and Use Committee in Taipei Medical University.
(§2) The spinal cord injury was produced by using the NYU (New York University) impactor device. The spinal cord contusion was performed under deep anesthesia with Zoleti150 (40 mg/kg i.p.) After a dorsal laminectomy was performed on T9, the spinal cord segments T9 were exposed. Then, the surgery of spinal cord injury was produced by dropping the 10 gram rod from a height of 50 mm.
Behavioral tests and analyses were performed by observers blinded to the treatments. Locomotor function was observed and recorded using the Basso, Beattie, and Bresnahan (BBB) Locomotor Rating Scale. On days 1, 3, and 7 post injury, hindlimb motor function was assessed using the open-field BBB score locomotor test.
(§3) Compound 1 was dissolved in 5% ethanol, 35% polyethylene glycol and 60% normal saline at a concentration of 15 mg/ml. […]

[2] = system: apoptotic cells of spinal cord; experiment: TUNEL staining of apoptosis after spinal cord injury; type: in vivo; settings: rats after spinal cord injury, 30 mg/Kg per day for 7 days, vs vehicle
Description: as §1, §2, §3
(§4) On 7th day after hemisection spinal cord injury, animals were deeply anesthetized by isoflurane and perfused through the left ventricle with phosphate-buffered saline (PBS), followed by cold 4% paraformaldehyde in 0.15M sodium phosphate buffer, pH 7.4. […] Furthermore, apoptosis after spinal cord injury was detected by terminal deoxynucleotidyl transferase-mediated deoxyuridine triphosphate nick-end labeling (TUNEL) using the apoptosis detection kit (Oncogene Research Products, Cambridge, Mass.). […] Only cells with clearly visible stain were counted. All data are presented as means±SEM of five consecutive cell quantifications.

C57BL/6J mice = experiment: Contextual fear conditioning (freezing behavioral test) in normal mice; type: in vivo; settings: normal C57BL/6J mice; 50, 100, 200 mg/kg intraperitoneally once before training; test 24 h after training; dose dependent; *p<0.05, **p<0.01
Excerpt: (§5) Tg2576 transgenic mice carry a transgene coding for the 695-amino acid isoform of human APP derived from a large Swedish family with early-onset Alzheimer's disease (AD). These mice express high concentrations of the mutant Aβ, develop significant number of amyloid plaques and display memory deficits. Tg2576 mice were purchased from The Jackson laboratory (Maine, US). C57BL/6J mice 6-8 week of age were purchased from BioLASCO Taiwan Co., Ltd for dose-dependent effect study. The animals were housed 5 per cage in a temperature (21±1° C.)—and humidity (70±5%)—controlled room, under a 12 h-12 h light-dark cycle (lights on at 6:00 a.m.). Animal had free access to food and water during the experiment. Behavior testing was carried out in the light phase of the cycle. All animal experiments were carried out in accordance with the guidelines established by the Institutional Animal Care and Utilization Committee of the Taipei Medical University (Taipei, Taiwan, R.O.C.).
as §3
(§6) All mice were transported to the laboratory for 2 hour before training to erase unnecessary stress. […] The data was recorded and calculated by its system software (TruScan 2.02).

[3] = system: NeuN-positive neurons of spinal cord; experiment: NeuN immunohistochemistry after spinal cord injury; type: in vivo; settings: rats after spinal cord injury, 30 mg/Kg per day for 7 days, vs vehicle
Description: as §1, §2, §3, §4

[4] = system: histone 3 and 4 acetylation, p21 and phospho-ERK; experiment: Western blot of histone 3 and 4 acetylation, p21 and phospho-ERK after spinal cord injury; type: in vivo, rats; settings: 100 mg/kg intravenous injection, vs vehicle control
Description: as §1, §2, §3

[5] = system: synaptic plasticity proteins; experiment: Western blotting of synaptic plasticity proteins in hippocampus of Tg2576 mice; type: in vivo; settings: oral gavage 50 mg/kg per day for 20 days
Description: (§7) Tg2576 transgenic mice carry a transgene coding for the 695-amino acid isoform of human APP derived from a large Swedish family with early-onset Alzheimer's disease (AD). These mice express high concentrations of the mutant Aβ, develop significant number of amyloid plaques and display memory deficits.
Compound 1 was dissolved in 5% ethanol, 35% polyethylene glycol and 60% normal saline at a concentration of 15 mg/ml. C57BL/6J Mice were treated with Compound 1 (50, 100, 200 mg/kg, intraperitoneally) or vehicle once before contexual fear conditioning training. Then, Tg2576 transgenic mice were treated with Compound 1 orally (50 mg/kg per day for 20 days) or vehicle at the ages of 5 months and 11 months.
Animals were deep anesthetized with choral hydrate (400 mg/kg) and perfused with both normal saline and 4% paraformaldehyde. The hippocampus were collected and lysed in lysis buffer (Lysis-M reagent, Roche). The lysates were incubated for 5 min on ice and centrifuged for 20 min at 14,000 r.p.m. and 4° C. The supernatant was collected as cytosolic protein extract. Protein concentrations were measured and normalized using Bradford protein assay kit (Pierce). After normalization, 30 μg of protein was subjected to western blotting. Immunoreactivity was examined by enhanced chemiluminescence (Millipore).

Tg2576 mice = experiment: Contextual fear conditioning (CS-US pairing) in dementia animal model; type: in vivo; settings: orally 50 mg/kg per day for 20 days, 6-month old p=0.0264, 12-month old p=0.0028 vs untreated of same age
Excerpt: as §7
as §5, with “All animal experiments were carried out in accordance with the guidelines established by the Institutional Animal Care and Utilization Committee of the Taipei Medical University (Taipei, Taiwan, R.O.C.).” left out
as §6

For O=C(/C=C/c1ccc2c(ccn2S(=O)(=O)c2ccccc2)c1)NO [compound 1, 3-(1-benzensulfonyl-1H-indol-5-yl)-N-hydroxy-acrylamide], which “BBB score (motor function)” value [1] is on record?
Its value is “significant recovery”.

And the “apoptotic cells number (TUNEL)” value ([2]; p=0.0015)?
Its value is “significantly reduced”.

What about the “apoptotic cells percentage (TUNEL)” value ([2]; p=0.0098) of the same compound?
The value was “significantly reduced”.

What about the “strength of tone-shock pairing memory (freezing behavioral test)” value (C57BL/6J mice) of the same compound?
Its value is “increased significantly”.

And the “neuron cells percentage (NeuN)” value ([3]; p<0.0001)?
The value was “significantly preserved”.

What about the “neuron cells number (NeuN)” value ([3]; p=0.0151) of the same compound?
Its value is “significantly preserved”.

And the “expression of histone 4 acetylation (ac-H4)” value ([4]; p=0.0023)?
The value was “Significant increase”.

What about the “expression of p21” value ([4]; p=0.0043) of the same compound?
Its value is “Significant increase”.

What about the “expression of phospho-ERK (p-ERK)” value ([4]; p=0.0311) of the same compound?
The value was “Significant increase”.

And the “expression of histone 3 acetylation (ac-H3)” value ([4]; p=0.0451)?
Its value is “Significant increase”.

And the “acetyl-Histone H4 expression in hippocampus” value ([5]; ###p=0.0008)?
The value was “elevated”.

And the “p21 expression in hippocampus” value ([5]; #p=0.0145)?
The value was “elevated”.

What about the “NR2a protein expression in hippocampus” value ([5]; #p=0.0231) of the same compound?
Its value is “elevated”.

What about the “pERK expression in hippocampus” value ([5]; #p=0.0428) of the same compound?
Its value is “elevated”.

And the “NR2b protein expression in hippocampus” value ([5]; #p=0.0492)?
Its value is “elevated”.

What about the “tone-shock pairing memory (contextual fear conditioning)” value (Tg2576 mice) of the same compound?
Its value is “enhanced”.
